Laboratory results reported in patent publication US20140329863A1 (priority 2011, published 2014).
pEC50: −log10 of the molar value. Read-outs that look alike come from different tables or passages of the source. Marks after values point to notes of the source that are not given here.

How the values were obtained:
PrP^C in T98G cells = assay type: cell-based, human; details: read-out: EC50 (μM) ELISA potency, PrP^C in T98G cells
[1] = Hepatic microsomal stability, human; details: human liver microsomes; for Hepatic Extraction Ratio Human: predicted hepatic extraction; for half-life at 1 μM: human, pH 7.4
[2] = Hepatic microsomal stability, mouse; details: mouse liver microsomes; for Hepatic Extraction Ratio Mouse: predicted hepatic extraction; for half-life at 1 μM: mouse, pH 7.4
[3] = system: PrP^Sc in dividing ScN2a-cl3 cells; assay type: cell-based, mouse; parameters: Dividing ELISA pEC50 (μM) 1st Expt. / Dividing ELISA pEC50 (μM) 2nd Expt. / Dividing ELISA pEC50 (μM) 3rd Expt. / Dividing ELISA pEC50 (μM) Mean: unit not given here
N2a-cl3 cells [4] = system: N2a-cl3 cells
[5] = system: PrP^Sc in nondividing ScN2a-cl3 cells; assay type: cell-based, mouse; details: for EC50: read-out: Non-Dividing ELISA EC50 (μM) Mean (n = 3), ScN2a-c13 non-dividing cells, mean n = 3
N2a-cl3 cells [6] = assay: cells; details: Mus musculus; for EC50: N2a-cl3, read-out: Dividing Calcein EC50 (μM) Mean (n = 3)
[7] = system: PrP^Sc in ScN2a-cl3 cells; assay type: cell-based, mouse; details: Western immunoblots
[8] = read-out: Dividing ELISA EC50 (μM) 1st Expt., ScN2a-cl3 dividing cells, 1st determination
[9] = read-out: Dividing ELISA EC50 (μM) 2nd Expt., ScN2a-cl3 dividing cells, 2nd determination
[10] = read-out: Dividing ELISA EC50 (μM) 3rd Expt., ScN2a-cl3 dividing cells, 3rd determination
[11] = read-out: Dividing ELISA EC50 (μM) Mean, ScN2a-cl3 dividing cells, mean of three determinations
[12] = ScN2a-cl3 dividing cells, 1st determination
[13] = ScN2a-cl3 dividing cells, 2nd determination
[14] = ScN2a-cl3 dividing cells, 3rd determination
[15] = ScN2a-cl3 dividing cells, mean of three determinations

In the case of COc1ccccc1C(=O)N1CCN(c2ccccc2OC)CC1 [IND116050], the EC50 (PrP^C in T98G cells) was 0.887 µM.

For COc1ccc(Cl)cc1C(=O)N1CC(=O)Nc2ccccc21 [IND116063], the EC50 (PrP^C in T98G cells) was 0.647 µM.

With COc1ccc(S(=O)(=O)N2CCOc3ccccc32)cc1 [IND116071] the EC50 (PrP^C in T98G cells) was 1.71 µM, the “Hepatic Extraction Ratio Human” value [1] was 0.94 and the half-life at 1 μM [1] was 4.53 min. The “Hepatic Extraction Ratio Mouse” value [2] was 0.98 and the half-life at 1 μM [2] was 1.53 min.

With Cc1c(C(=O)OC(C)C)[nH]c2c1C(=O)CC(c1cccs1)C2 (stereo not shown) [IND116088] the EC50 (PrP^C in T98G cells) was 0.303 µM, the “Hepatic Extraction Ratio Human” value [1] was 0.74 and the half-life at 1 μM [1] was 23.9 min. For the same compound, the “Hepatic Extraction Ratio Mouse” value [2] was 0.90 and the half-life at 1 μM [2] was 6.88 min.

With Cc1nc2sccn2c1-c1csc(Nc2ccc(N(C)C)nc2)n1 [IND126306] the EC50 (PrP^C in T98G cells) was 0.217 µM.

With CCN(CC)c1ccc2c(c1)OC(N)=C(C#N)C2c1ccccc1 (stereo not shown) [IND126322] the EC50 (PrP^C in T98G cells) was 0.174 µM.

With CCOc1ccc(Nc2nc(-c3c(C)nc4sccn34)cs2)cc1 [IND126328] the EC50 (PrP^C in T98G cells) was 0.065 µM, the “Hepatic Extraction Ratio Human” value [1] was 0.76 and the half-life at 1 μM [1] was 21.9 min. The “Hepatic Extraction Ratio Mouse” value [2] was 0.86 and the half-life at 1 μM [2] was 9.64 min.

For COc1ccc(Cl)cc1NS(=O)(=O)c1ccc(N2CCCC2=O)cc1 [IND126331], the EC50 (PrP^C in T98G cells) was 0.684 µM.

For COc1cccc(N2CCN(C(=O)c3cc(C)ccc3OC)CC2)c1 [IND126339], the EC50 (PrP^C in T98G cells) was 0.248 µM, the “Hepatic Extraction Ratio Human” value [1] was 0.87 and the half-life at 1 μM [1] was 10.3 min. For the same compound, the “Hepatic Extraction Ratio Mouse” value [2] was 0.95 and the half-life at 1 μM [2] was 3.2 min.

For CCOC(=O)c1[nH]c2c(c1C)C(=O)CC(c1ccccc1Cl)C2 (stereo not shown) [IND126429], the EC50 (PrP^C in T98G cells) was 0.497 µM.

Compound CCOC(=O)c1[nH]c2c(c1C)C(=O)CC(c1ccccc1)C2 (stereo not shown) [IND126432] has an EC50 (PrP^C in T98G cells) of 0.144 µM.

In the case of Cc1ccc2[nH]c3c(c2c1)CCCC3NCCCN(C)C (stereo not shown) [IND-23308], the “Inhibition of Baseline PrP^5c (%) Dividing Cells ELISA” value ([3]; SPC assay, dividing cells) was 88%, the pEC50 ([3]; read-out: EC50, PrP^Sc ELISA in dividing ScN2a-c13 cells) was 5.80 and the “Dividing Cells V (cell viability percentages)” value (N2a-cl3 cells [4]) was 30%. The “Effect on cell viability (EC50)” value (N2a-cl3 cells [4]) was “no effect on cell viability”, the “Non-dividing Cells V (cell viability percentages)” value (N2a-cl3 cells [4]) was 12% and the HTS % inhibition ([5]; HTS, nondividing cells) was 70%. For the same compound, the “Inhibition of Baseline PrP^5c (%) Non-dividing Cells ELISA” value ([5]; SPC assay, nondividing cells) was 94^d %, the SPC % inhibition ([5]; SPC assays, nondividing cells) was 94% and the pEC50 ([5]; read-out: EC50, PrP^Sc ELISA in stationary-phase (nondividing) cells) was 5.12. The pEC50 (N2a-cl3 cells [6]; N2a-cl3, read-out: potency in cell viability, dividing cells) was under 5.00 and the pEC50 (N2a-cl3 cells [6]; N2a-cl3, read-out: potency in cell viability, stationary-phase cells) was under 5.00.

With OCCNCc1cc(Br)ccc1OCc1ccc(Cl)cc1Cl [IND-0033452] the EC50 ([3]; dividing ScN2a-cl3 cells, read-out: EC50 (nM): ELISA) was 2850 nM, the EC50 ([3]; read-out: Potency (nM) ELISA (EC50), PrP^Sc ELISA, dividing ScN2a-cl3 cells) was 2850 nM and the Calcein (N2a-cl3 cells [4]) was “MW: 405.1 EC50 (nM): ELISA: 2850 Calcein: 27% Western: 1993”. The “Calcein (value printed in %)” value (N2a-cl3 cells [4]; mouse) was 27%, the EC50 ([7]; ScN2a-cl3 cells, read-out: EC50 (nM): Western) was 1990 nM and the EC50 ([7]; read-out: Potency (nM) Western (EC50), dividing ScN2a-cl3 cells) was 1990 nM.

Work on COc1ccc(-c2csc(Nc3ccc(C)cn3)n2)cc1OC [compound 14, [4-(3,4-dimethoxyphenyl)-thiazol-2-yl]-(5-methylpyridin-2-yl)-amine] yielded an EC50 [3, 8] of 974 nM, an EC50 [3, 9] of 577 nM and an EC50 [3, 10] of 815 nM. For the same compound, the EC50 [3, 11] was 789 nM, the EC50 [5] was over 32 µM and the EC50 (N2a-cl3 cells [6]) was over 32 µM.

For c1ccc2cc(Nc3nc(-c4ccncc4)cs3)ncc2c1 [compound 32], the “Dividing ELISA pEC50 (μM) 1st Expt.” value [3, 12] was 6.58, the EC50 ([3]; ScN2a-cl3 dividing cells, 1st determination, read-out: Dividing ELISA EC50 (μM) 1st Expt.) was 261 nM and the “Dividing ELISA pEC50 (μM) 2nd Expt.” value [3, 13] was 6.56. The EC50 ([3]; ScN2a-cl3 dividing cells, 2nd determination, read-out: Dividing ELISA EC50 (μM) 2nd Expt.) was 277 nM, the “Dividing ELISA pEC50 (μM) 3rd Expt.” value [3, 14] was 6.42 and the EC50 ([3]; ScN2a-cl3 dividing cells, 3rd determination, read-out: Dividing ELISA EC50 (μM) 3rd Expt.) was 383 nM. For the same compound, the “Dividing ELISA pEC50 (μM) Mean” value [3, 15] was 6.52, the EC50 ([3]; ScN2a-cl3 dividing cells, mean of three determinations, read-out: Dividing ELISA EC50 (μM) Mean) was 307 nM and the EC50 (N2a-cl3 cells [4]; read-out: Dividing Calcein EC50 (μM) Mean (n = 3)) was over 32 µM. It also gave an EC50 [5] of over 32 µM.

In the case of c1ccc(-c2cc(-c3csc(Nc4cc5ccccc5cn4)n3)on2)cc1 [compound 35, Isoquinolin-3-yl-[4-(3-phenylisoxazol-5-yl)-thiazol-2-yl]-amine], the “Dividing ELISA pEC50 (μM) 1st Expt.” value [3, 12] was 5.93, the “Dividing ELISA pEC50 (μM) 2nd Expt.” value [3, 13] was 6.24 and the “Dividing ELISA pEC50 (μM) 3rd Expt.” value [3, 14] was 6.18. For the same compound, the “Dividing ELISA pEC50 (μM) Mean” value [3, 15] was 6.12, the EC50 [3, 8] was 1160 nM and the EC50 [3, 9] was 573 nM. For the same compound, the EC50 [3, 10] was 663 nM, the EC50 [3, 11] was 799 nM and the EC50 [5] was over 32 µM. For the same compound, the EC50 (N2a-cl3 cells [6]) was over 32 µM.

For Cc1ccc(Nc2nc3c(s2)Cc2ccccc2-3)nc1 [compound 38, (8H-Indeno[1,2-d]thiazol-2-yl)-(5-methylpyridin-2-yl)-amine], the “Dividing ELISA pEC50 (μM) 1st Expt.” value [3, 12] was 5.70, the “Dividing ELISA pEC50 (μM) 2nd Expt.” value [3, 13] was 5.52 and the “Dividing ELISA pEC50 (μM) 3rd Expt.” value [3, 14] was 5.63. For the same compound, the “Dividing ELISA pEC50 (μM) Mean” value [3, 15] was 5.62, the EC50 [3, 8] was 1990 nM and the EC50 [3, 9] was 2990 nM. It also gave an EC50 [3, 10] of 2340 nM, an EC50 [3, 11] of 2440 nM and an EC50 [5] of over 32 µM. The EC50 (N2a-cl3 cells [6]) was over 32 µM.

With COc1cc2c(cc1OC)-c1nc(Nc3ccc(C)cn3)sc1C2 [compound 39, (5,6-Dimethoxy-8H-indeno-[1,2-d]thiazol-2-yl)-(5-methylpyridin-2-yl)-amine] the “Dividing ELISA pEC50 (μM) 1st Expt.” value [3, 12] was 5.46, the “Dividing ELISA pEC50 (μM) 2nd Expt.” value [3, 13] was 5.23 and the “Dividing ELISA pEC50 (μM) 3rd Expt.” value [3, 14] was 5.13. The “Dividing ELISA pEC50 (μM) Mean” value [3, 15] was 5.27, the EC50 [3, 8] was 3450 nM and the EC50 [3, 9] was 5930 nM. The EC50 [3, 10] was 7380 nM, the EC50 [3, 11] was 5590 nM and the EC50 [5] was over 32 µM. It also gave an EC50 (N2a-cl3 cells [6]) of over 32 µM.

In the case of Cc1ccnc(Nc2nc(-c3cc(-c4ccccc4)no3)cs2)c1 [compound 43, (4-Methylpyridin-2-yl)-[4-(3-phenylisoxazol-5-yl)-thiazol-2-yl]-amine], the “Dividing ELISA pEC50 (μM) 1st Expt.” value [3, 12] was 5.98, the “Dividing ELISA pEC50 (μM) 2nd Expt.” value [3, 13] was 5.96 and the “Dividing ELISA pEC50 (μM) 3rd Expt.” value [3, 14] was 5.78. For the same compound, the “Dividing ELISA pEC50 (μM) Mean” value [3, 15] was 5.90, the EC50 [3, 8] was 1050 nM and the EC50 [3, 9] was 1100 nM. It also gave an EC50 [3, 10] of 1670 nM, an EC50 [3, 11] of 1280 nM and an EC50 [5] of over 32 µM. It also gave an EC50 (N2a-cl3 cells [6]) of over 32 µM.
